In PMC2984425, “Safety and pharmacokinetics of novel selective vascular endothelial growth factor receptor-2 inhibitor YN968D1 in patients with advanced malignancies” (BMC Cancer, 2010):

Tested on: patients with advanced solid tumors
Assay: Treatment-related adverse events graded by NCI-CTC v3.0
Type: in vivo, human
Protocol: Medical records and laboratory tests were obtained during screening. Physical examination, routine laboratory evaluations, and performance status were assessed at baseline and at specified time points throughout the trial. AEs and concomitant medications were recorded at the end of each cycle. The safety evaluation period extended through 30 days from the last dose of study drug or through recovery to grade 1 or better from all acute toxicities associated with drug administration. Toxicity was evaluated and graded according to the NCI-CTC for Adverse Events, version 3.0.

Compound: N#CC1(c2ccc(NC(=O)c3cccnc3NCc3ccncc3)cc2)CCCC1 [apatinib]
- Hoarseness grade 1-2, No. (850 mg cohort): 1
- Hyperbilirubinemia grade 1-2, % (850 mg cohort): 23.1%
- Hyperbilirubinemia grade 1-2, No. (850 mg cohort): 3
- Hypertension grade 1-2, % (850 mg cohort): 69.2%
- Hypertension grade 1-2, No. (850 mg cohort): 9
- Infection grade 1-2, % (850 mg cohort): 23.1%
- Infection grade 1-2, No. (850 mg cohort): 3
- Mucosal ulcers grade 1-2, % (850 mg cohort): 15.4%
- Mucosal ulcers grade 1-2, No. (850 mg cohort): 2
- Neutropenia grade 1-2, % (850 mg cohort): 30.8%
- Neutropenia grade 1-2, No. (850 mg cohort): 4
- Neutropenia grade 3-4, % (850 mg cohort): 15.4%
- Neutropenia grade 3-4, No. (850 mg cohort): 2
- Pain grade 1-2, % (850 mg cohort): 23.1%
- Pain grade 1-2, No. (850 mg cohort): 3
- Proteinuria grade 1-2, % (850 mg cohort): 38.5%
- Proteinuria grade 1-2, No. (850 mg cohort): 5
- Proteinuria grade 3-4, % (850 mg cohort): 7.7%
- Proteinuria grade 3-4, No. (850 mg cohort): 1
- Rash grade 1-2, % (850 mg cohort): 7.7%
- Rash grade 1-2, No. (850 mg cohort): 1
- Thrombocytopenia grade 1-2, % (850 mg cohort): 15.4%
- Thrombocytopenia grade 1-2, No. (850 mg cohort): 2
- Thrombocytopenia grade 3-4, % (850 mg cohort): 7.7%
- Thrombocytopenia grade 3-4, No. (850 mg cohort): 1
- Transaminase Increased grade 1-2, % (850 mg cohort): 23.1%
- Transaminase Increased grade 1-2, No. (850 mg cohort): 3
- Transaminase Increased grade 3-4, % (850 mg cohort): 15.4%
- Transaminase Increased grade 3-4, No. (850 mg cohort): 2
- Vomiting grade 3-4, % (850 mg cohort): 7.7%
- Vomiting grade 3-4, No. (850 mg cohort): 1
- Anemia grade 3-4, % (1000 mg cohort): 33.3%
- Anemia grade 3-4, No. (1000 mg cohort): 1
- Anorexia grade 1-2, % (1000 mg cohort): 33.3%
- Anorexia grade 1-2, No. (1000 mg cohort): 1
- Fatigue grade 1-2, % (1000 mg cohort): 33.3%
- Fatigue grade 1-2, No. (1000 mg cohort): 1
- Fatigue grade 3-4, % (1000 mg cohort): 33.3%
- Fatigue grade 3-4, No. (1000 mg cohort): 1
- Hand-Food Syndrome grade 3-4, % (1000 mg cohort): 33.3%
- Hand-Food Syndrome grade 3-4, No. (1000 mg cohort): 1
- Hypertension grade 1-2, % (1000 mg cohort): 66.7%
- Hypertension grade 1-2, No. (1000 mg cohort): 2
- Hypertension grade 3-4, % (1000 mg cohort): 33.3%
- Hypertension grade 3-4, No. (1000 mg cohort): 1
- Infection grade 1-2, % (1000 mg cohort): 33.3%
- Infection grade 1-2, No. (1000 mg cohort): 1
- Mucosal ulcers grade 1-2, % (1000 mg cohort): 66.7%
- Mucosal ulcers grade 1-2, No. (1000 mg cohort): 2
- Neutropenia grade 1-2, % (1000 mg cohort): 100%
- Neutropenia grade 1-2, No. (1000 mg cohort): 3
- Pain grade 1-2, % (1000 mg cohort): 33.3%
- Pain grade 1-2, No. (1000 mg cohort): 1
- Thrombocytopenia grade 1-2, % (1000 mg cohort): 33.3%
- Thrombocytopenia grade 1-2, No. (1000 mg cohort): 1
- Transaminase Increased grade 1-2, % (1000 mg cohort): 33.3%
- Transaminase Increased grade 1-2, No. (1000 mg cohort): 1
- Transaminase Increased grade 3-4, % (1000 mg cohort): 33.3%
- Transaminase Increased grade 3-4, No. (1000 mg cohort): 1
- Albinism grade 1-2, % (Total, all cohorts): 2.2%
- Albinism grade 1-2, No. (Total, all cohorts): 1
- Anemia grade 1-2, % (Total, all cohorts): 15.2%
- Anemia grade 1-2, No. (Total, all cohorts): 7
- Anemia grade 3-4, % (Total, all cohorts): 4.3%
- Anemia grade 3-4, No. (Total, all cohorts): 2
- Anorexia grade 1-2, % (Total, all cohorts): 15.2%
- Anorexia grade 1-2, No. (Total, all cohorts): 7
- Diarrhea grade 1-2, % (Total, all cohorts): 13%
- Diarrhea grade 1-2, No. (Total, all cohorts): 6
- Dyspnea grade 1-2, % (Total, all cohorts): 2.2%
- Dyspnea grade 1-2, No. (Total, all cohorts): 1
- Fatigue grade 1-2, % (Total, all cohorts): 21.7%
- Fatigue grade 1-2, No. (Total, all cohorts): 10
- Fatigue grade 3-4, % (Total, all cohorts): 4.3%
- Fatigue grade 3-4, No. (Total, all cohorts): 2
- Hand-Food Syndrome grade 1-2, % (Total, all cohorts): 32.6%
- Hand-Food Syndrome grade 1-2, No. (Total, all cohorts): 15
- Hand-Food Syndrome grade 3-4, % (Total, all cohorts): 13%
- Hand-Food Syndrome grade 3-4, No. (Total, all cohorts): 6
- Hemorrhage grade 1-2, % (Total, all cohorts): 21.7%
- Hemorrhage grade 1-2, No. (Total, all cohorts): 10
- Hemorrhage grade 3-4, % (Total, all cohorts): 2.2%
- Hemorrhage grade 3-4, No. (Total, all cohorts): 1
- Hoarseness grade 1-2, % (Total, all cohorts): 8.7%
- Hoarseness grade 1-2, No. (Total, all cohorts): 4
- Hyperbilirubinemia grade 1-2, % (Total, all cohorts): 6.5%
- Hyperbilirubinemia grade 1-2, No. (Total, all cohorts): 3
- Hyperbilirubinemia grade 3-4, % (Total, all cohorts): 2.2%
- Hyperbilirubinemia grade 3-4, No. (Total, all cohorts): 1
- Hypertension grade 1-2, % (Total, all cohorts): 63%
- Hypertension grade 1-2, No. (Total, all cohorts): 29
- Hypertension grade 3-4, % (Total, all cohorts): 6.5%
- Hypertension grade 3-4, No. (Total, all cohorts): 3
- Infection grade 1-2, % (Total, all cohorts): 21.7%
- Infection grade 1-2, No. (Total, all cohorts): 10
- Mucosal ulcers grade 1-2, % (Total, all cohorts): 17.4%
- Mucosal ulcers grade 1-2, No. (Total, all cohorts): 8
- Mucosal ulcers grade 3-4, % (Total, all cohorts): 4.3%
- Mucosal ulcers grade 3-4, No. (Total, all cohorts): 2
- Neutropenia grade 1-2, % (Total, all cohorts): 34.8%
- Neutropenia grade 1-2, No. (Total, all cohorts): 16
- Neutropenia grade 3-4, % (Total, all cohorts): 8.7%
- Neutropenia grade 3-4, No. (Total, all cohorts): 4
- Pain grade 1-2, % (Total, all cohorts): 26.1%
- Pain grade 1-2, No. (Total, all cohorts): 12
- Pain grade 3-4, % (Total, all cohorts): 8.7%
- Pain grade 3-4, No. (Total, all cohorts): 4
- Proteinuria grade 1-2, % (Total, all cohorts): 34.8%
- Proteinuria grade 1-2, No. (Total, all cohorts): 16
- Proteinuria grade 3-4, % (Total, all cohorts): 13%
- Proteinuria grade 3-4, No. (Total, all cohorts): 6
- Rash grade 1-2, % (Total, all cohorts): 6.5%
- Rash grade 1-2, No. (Total, all cohorts): 3
- Thrombocytopenia grade 1-2, % (Total, all cohorts): 26.1%
- Thrombocytopenia grade 1-2, No. (Total, all cohorts): 12
- Thrombocytopenia grade 3-4, % (Total, all cohorts): 2.2%
- Thrombocytopenia grade 3-4, No. (Total, all cohorts): 1
- Transaminase Increased grade 1-2, % (Total, all cohorts): 28.3%
- Transaminase Increased grade 1-2, No. (Total, all cohorts): 13
- Transaminase Increased grade 3-4, % (Total, all cohorts): 8.7%
- Transaminase Increased grade 3-4, No. (Total, all cohorts): 4
- Vomiting grade 1-2, % (Total, all cohorts): 8.7%
- Vomiting grade 1-2, No. (Total, all cohorts): 4
- Vomiting grade 3-4, % (Total, all cohorts): 2.2%
- Vomiting grade 3-4, No. (Total, all cohorts): 1
- hypertension, drug-related AE, all grades (all patients, N = 46): 69.5%
- proteinuria, drug-related AE, all grades (all patients, N = 46): 47.8%
- bleeding, patients (all patients, most at tumor sites): 23.9%
- patients who developed HFS that progressed to grade 3 (in vivo): About 10%
